Laboratory results as given in patent US20080175926A1, “Process for treating storage reservoirs contaminated with mycotoxins” (priority 2006, published 2008).

What was measured:
Penicillium spp. = assay: Thermal fogging with eugenol of empty grain storage cells; Airtest trapping of Penicillium colonies on Petri dishes; conditions: for Penicillium contamination (number colonies/Petri dish) After treatment: Airtest 100 l, 10 days after treatment
Method: (§1) Six cells (noted ‘20’, ‘L’, ‘12’, ‘F’, ‘8’ and ‘I’) were studied. These are concrete cells with a conical bottom (bottom for completely emptying the cell and eliminating more readily the debris and dust before ensilaging the next harvest). The cells identified by a number have a capacity of 350 t, those identified by a letter have a capacity of 50 t. The level of contamination of the six cells was evaluated by trapping the contaminated spores or particles using an Airtest introduced into the cell via an access hatch located at the base of the cell.
(§2) The Petri dishes 90 mm in diameter, placed in the Airtest and constituting the trap, contained a Malt Agar+Triton medium; the addition of triton modifies the development of the fungal colonies, which remain compact and are easy to count. The volume of air passing through the Airtest was set at 100 I, except for one cell in which we tested 4 different volumes of air (10 l, 20 l, 40 l, 100 l). For each mode, three repetitions (3Petri dishes) were carried out.
(§3) Two types of trapping were carried out; atmospheric trapping and trapping on the […]. In fact, these walls have rough patches and can retain mould spores or infected particles. The Airtest was placed approximately 5 mm from the wall.
(§4) […]
(§5) The eugenol thermal fogging treatment was carried out on a platform on which the thermal fogging device was installed.
(§6) 4 l and 20 l of eugenol, respectively, were subjected to thermal fogging at 230° C. (for approximately ¾ h) in cell L (≈50 m^3) and in cell 12 (≈350 m^3).

Aspergillus spp. = assay: Thermal fogging with eugenol of empty grain storage cells; Airtest trapping of Aspergillus colonies on Petri dishes; conditions: for Aspergillus contamination (number colonies/Petri dish) After treatment: Airtest 100 l, 10 days after treatment
Method: as §1, §2, §3, §4, §5, §6

[1] = thermal fogging of eugenol in the cells, atmospheric and wall contamination

C=CCc1ccc(O)c(OC)c1 [eugenol]
Penicillium contamination (number colonies/Petri dish) After treatment (Penicillium spp.; cell 12 (wheat, ≈350 m^3), 20 l eugenol thermal fogging at 230° C., atmosphere trapping, before treatment 1240): 400 number colonies/Petri dish
Penicillium contamination (number colonies/Petri dish) After treatment (Penicillium spp.; cell 12 (wheat, ≈350 m^3), 20 l eugenol thermal fogging at 230° C., wall trapping, before treatment 1860): 207 number colonies/Petri dish
Penicillium contamination (number colonies/Petri dish) After treatment (Penicillium spp.; cell L (wheat, ≈50 m^3), 4 l eugenol thermal fogging at 230° C., atmosphere trapping, before treatment 2650): 106 number colonies/Petri dish
Penicillium contamination (number colonies/Petri dish) After treatment (Penicillium spp.; cell L (wheat, ≈50 m^3), 4 l eugenol thermal fogging at 230° C., wall trapping, before treatment 7500): 85 number colonies/Petri dish
level of Penicillium spp. contamination after treatment (in words) (Penicillium spp.; cells L and 12, thermal fogging with eugenol at 230° C., atmospheric and wall contamination): clear decrease
effectiveness against Penicillium spp. present in the grain storage cells (in words) (Penicillium spp.; [1]): very effective
Aspergillus contamination (number colonies/Petri dish) After treatment (Aspergillus spp.; cell 12 (wheat, ≈350 m^3), 20 l eugenol thermal fogging at 230° C., atmosphere trapping, before treatment 77): 0 number colonies/Petri dish
Aspergillus contamination (number colonies/Petri dish) After treatment (Aspergillus spp.; cell 12 (wheat, ≈350 m^3), 20 l eugenol thermal fogging at 230° C., wall trapping, before treatment 85): 0 number colonies/Petri dish
Aspergillus spp. contamination after treatment (in words) (Aspergillus spp.; cell 12, 20 l eugenol thermal fogging at 230° C.): completely controlled
Aspergillus contamination (number colonies/Petri dish) After treatment (Aspergillus spp.; cell L (wheat, ≈50 m^3), 4 l eugenol thermal fogging at 230° C., atmosphere trapping, before treatment 0): 0 number colonies/Petri dish
Aspergillus contamination (number colonies/Petri dish) After treatment (Aspergillus spp.; cell L (wheat, ≈50 m^3), 4 l eugenol thermal fogging at 230° C., wall trapping, before treatment 0): 0 number colonies/Petri dish
effectiveness against Aspergillus spp. present in the grain storage cells (in words) (Aspergillus spp.; [1]): very effective
